Source: PMC12856912, “Structure-Guided Semisynthesis of Blasticidin S–Amicetin Chimeras as Selective Ribosome Inhibitors” (Journal of the American Chemical Society, 2026)
Converted amounts (≈) assume the structure as drawn.

Legend:
[1] = tested on: Escherichia coli BAA-2452; test: Antibacterial MIC assay, serial dilution; type: cell-based; conditions: BAA2452, read-out: MIC Escherichia coli BAA-2452
[2] = tested on: Methicillin resistant S. aureus (MRSA) USA300; test: Antibacterial MIC assay, serial dilution; type: cell-based, Staphylococcus aureus; conditions: for Selectivity index (CC50/MIC) MRSA USA300: CC50 Vero cells / MIC; for MIC: Staphylococcus aureus, read-out: MIC Methicillin resistant S. aureus (MRSA) USA300
[3] = tested on: Vancomycin resistant E. faecalis NR-31972 (VRE); test: Antibacterial MIC assay, serial dilution; type: cell-based, Enterococcus faecalis; conditions: for Selectivity index (CC50/MIC) VRE NR-31972: CC50 Vero cells / MIC; for MIC: Enterococcus faecalis, VRE, 24 h, read-out: MIC Vancomycin resistant E. faecalis NR-31972 (VRE)
Description: (§1) Media and solutions were autoclaved or sterile filtered prior to use and mani pulations were carri ed out in a laminar flow hood. Antibacterial t esting was performed in polypropylene 96-well flat bottom plates. The minimal inhibitory concentration of blasticidin S (1) hydrochloride, methyl ester (3) trihydrochloride, P10 (2) tri-T FA , phenet hyl amide (4) tri -T FA , an d blastimidines M 19– 22, A, 29–32, P 37–40, and C 43–46 (salt forms as described in the te xt) were assessed against Staphylococcus aureus ΔNorA, S. aureus ATCC 6538P, methicillin-resistant S. aureus (MRSA) ATCC 43300, Enterococcus faecalis ATCC 29212, vancomycin- resistant Enterococcus, Klebsiella pneumoniae ATCC 29665, Pseudomonas aeruginosa,and Acinetobacter baumannii ATCC 17978 using serial dilutions. Doxycycline (Gold Bio) as a positive control and the vehicle as a negative control. Stock solutions of each compound were prepared at 2.56 mg/mL in 50% DMSO/water and serially diluted in 50% DMSO/water to create master plates. From the master plates, 10 μ L o f each dilution was applied to test plates using a Bravo automated liquid transfer system (Agilent).
(§2) Bacteria previously grown overnight (37 °C, 120–200 RPM), in LB broth were diluted to an OD600 of 0.05 in cation-adjusted Mueller-Hinton broth (CAMHB), grown to an OD600 of ~0.5, and diluted to an OD600 of 0.004 in CAMHB . These diluted cultures were applied to the test plates (190 μL per test well) resulting in final concentrations of the test compounds of 128–1 μg/ m L.
(§3) Growth controls (wells with inoculated media but no vehicle or test compounds) were included to assess any potential toxicity from the vehicle. Th e plates were in cubated at 37 °C for 16–18 h, except fo r VRE and E. faecalis, which w ere in cub ated at 37 °C fo r 24 h. Inh ibition was determined by measuring the optical density at 600 nm (OD60 0) with a Cytation 3 pl ate read er (BioTek). The optical density measurem ents were no rmalized to the positive and negative controls and the vehicle and growth controls were compared and found to b e indistinguishable, indicating no toxicity from […]
(§4) the vehicle used. The MIC was the lowest concentration that inhibited >90% of growth. Two biological replicates were performed in duplicate. MIC values are reported as a range from […]

[4] = tested on: Enterococcus faecalis ATCC 29212; test: Antibacterial MIC assay, serial dilution; type: cell-based; conditions: for Selectivity index (CC50/MIC) E. faecalis 29212: CC50 Vero cells / MIC; for MIC: Enterococcus faecalis, ATCC 29112 / ATCC 29212, 24 h, read-out: MIC E. faecalis ATCC 29112
Description: as §1, §2, §3, §4

[5] = tested on: Vancomycin resistant Enterococcus faecium NR-31909 (VRE); test: Antibacterial MIC assay, serial dilution; type: cell-based; conditions: for Selectivity index (CC50/MIC) VRE NR-31909: CC50 Vero cells / MIC; for MIC: Enterococcus faecium, VRE, 24 h, read-out: MIC Vancomycin resistant Enterococcus faecium NR-31909 (VRE)
Description: as §1, §2, §3, §4

Pseudomonas aeruginosa = test: Antibacterial MIC assay, serial dilution; type: cell-based; conditions: for Selectivity index (CC50/MIC) P. aeruginosa: CC50 Vero cells / MIC; for MIC: Pseudomonas aeruginosa, range from biological replicates, read-out: MIC P. aeruginosa
Description: as §1, §2, §3, §4

[6] = tested on: Acinetobacter baumannii ATCC 17978; test: Antibacterial MIC assay, serial dilution; type: cell-based; conditions: ATCC17978, range from biological replicates
Description: as §1, §2, §3, §4

[7] = tested on: Klebsiella pneumoniae ATCC 29665; test: Antibacterial MIC assay, serial dilution; type: cell-based; conditions: for Selectivity index (CC50/MIC) K. pneumoniae: CC50 Vero cells / MIC; for MIC: Klebsiella pneumoniae, ATCC29665, range from biological replicates, read-out: MIC K. pneumoniae ATCC-29665
Description: as §1, §2, §3, §4

MRSA ATCC 43300 = test: Antibacterial MIC assay, serial dilution; type: cell-based, Staphylococcus aureus; conditions: for Selectivity index (CC50/MIC) MRSA 43300: CC50 Vero cells / MIC; for MIC: Staphylococcus aureus, read-out: MIC MRSA ATCC 43300
Description: as §1, §2, §3, §4

S. aureus ΔNorA = test: Antibacterial MIC assay, serial dilution; type: cell-based, Staphylococcus aureus; conditions: for Selectivity index (CC50/MIC) S. aureus ΔNorA: CC50 Vero cells / MIC; for MIC: Staphylococcus aureus, read-out: MIC S. aureus ∆NorA
Description: as §1, §2, §3, §4

S. aureus ATCC 6538P = test: Antibacterial MIC assay, serial dilution; type: cell-based, Staphylococcus aureus; conditions: for Selectivity index (CC50/MIC) S. aureus 6538P: CC50 Vero cells / MIC; for MIC: Staphylococcus aureus, ATCC 6538P / ATCC 6539P, read-out: MIC S. aureus ATCC 6539P
Description: as §1, §2, §3, §4

[8] = tested on: Methicillin resistant Staphylococcus epidermidis (MRSE) ATCC 35984 NRS101; test: Antibacterial MIC assay, serial dilution; type: cell-based; conditions: for Selectivity index (CC50/MIC) MRSE 35984: CC50 Vero cells / MIC; for MIC: Staphylococcus epidermidis, read-out: MIC Methicillin resistant Staphylococcus epidermidis (MRSE) ATCC 35984 NRS101
[9] = Cytotoxicity assay (MTS/PMS); type: cell-based; conditions: monkey, Vero cells (monkey kidney epithelial cells); 24 h treatment, MTS/PMS, average of three biological replicates; read-out: CC50 against Vero cells
Description: The potential cytotoxic eff ect of the test compounds was investigated using Vero cells (monkey kidney epitheli al cells) following est ablished protocols.3 Briefly, Vero cells were plated into 96-well plates supplemented with Dulbecco's Modified Eagle Medium (DMEM) containing 10% fetal bovine serum (FBS). The cells were placed in a humidified 37 °C environment for incubation with 5% CO₂ for 24 h to allow proper adherence and growth. Following the incubation period, the culture medium was replaced with fresh DMEM containing serial dilutions of the test compounds, while the v ehicle alon e w as used as a negative control. The treated cells were incubated for an additional 24 h. To assess cell viability, the MTS/PMS reagent was added to each well and incubat ed for 4 h. A microplate reader (S ynergy H1, BioTek, USA) was used to m easure absorbance at 490 nm. Al l experiments wer e cond ucted usingthree biologi cal replicates .
Ta b l e S2. CC50 valuesa (µg/mL) against Vero cells […]
aValues at which the cell viability (normalized to vehicle control) was 50%. […]

CN(CC[C@H](N)CC(=O)N[C@H]1C=C[C@H](n2ccc(NC(=O)c3ccc(N)cc3)nc2=O)O[C@@H]1C(=O)O)C(=N)N [Blastimidine C2]
MIC [1]: 64 µg/mL (≈ 118 µM) | Selectivity index (CC50/MIC) MRSA USA300 [2]: 0.5 | MIC [2]: 128 µg/mL (≈ 236 µM) | Selectivity index (CC50/MIC) VRE NR-31972 [3]: 0.5 | MIC [3]: 128 µg/mL (≈ 236 µM) | Selectivity index (CC50/MIC) E. faecalis 29212 [4]: 1.0 | MIC [4]: 64 µg/mL (≈ 118 µM) | Selectivity index (CC50/MIC) VRE NR-31909 [5]: 1.0 | MIC [5]: 64 µg/mL (≈ 118 µM) | Selectivity index (CC50/MIC) P. aeruginosa (Pseudomonas aeruginosa): <0.5 | MIC (Pseudomonas aeruginosa): > 128 µg/mL | MIC [6]: > 128 µg/mL | Selectivity index (CC50/MIC) K. pneumoniae [7]: 1.0 | MIC [7]: 64 µg/mL (≈ 118 µM) | Selectivity index (CC50/MIC) MRSA 43300 (MRSA ATCC 43300): <0.5 | MIC (MRSA ATCC 43300): > 128 µg/mL | Selectivity index (CC50/MIC) S. aureus ΔNorA (S. aureus ΔNorA): <0.5 | MIC (S. aureus ΔNorA): > 128 µg/mL | Selectivity index (CC50/MIC) S. aureus 6538P (S. aureus ATCC 6538P): <0.5 | MIC (S. aureus ATCC 6538P): > 128 µg/mL | Selectivity index (CC50/MIC) MRSE 35984 [8]: <0.5 | MIC [8]: > 128 µg/mL | CC50 at 24 h [9]: 66 µg/mL (≈ 122 µM)

CNc1ccc(C(=O)Nc2ccn([C@H]3C=C[C@H](NC(=O)C[C@@H](N)CCN(C)C(=N)N)[C@@H](C(=O)O)O3)c(=O)n2)cc1 [Blastimidine C3]
MIC [1]: > 128 µg/mL | Selectivity index (CC50/MIC) MRSA USA300 [2]: 1.1 | MIC [2]: 128 µg/mL (≈ 230 µM) | Selectivity index (CC50/MIC) VRE NR-31972 [3]: 1.1 | MIC [3]: 128 µg/mL (≈ 230 µM) | Selectivity index (CC50/MIC) E. faecalis 29212 [4]: 2.2 | MIC [4]: 64 µg/mL (≈ 115 µM) | Selectivity index (CC50/MIC) VRE NR-31909 [5]: 2.2 | MIC [5]: 64 µg/mL (≈ 115 µM) | Selectivity index (CC50/MIC) P. aeruginosa (Pseudomonas aeruginosa): <1.1 | MIC (Pseudomonas aeruginosa): > 128 µg/mL | MIC [6]: > 128 µg/mL | Selectivity index (CC50/MIC) K. pneumoniae [7]: 1.7 | MIC [7]: 64 to 128 µg/mL (≈ 115 to 230 µM) | Selectivity index (CC50/MIC) MRSA 43300 (MRSA ATCC 43300): <1.1 | MIC (MRSA ATCC 43300): > 128 µg/mL | Selectivity index (CC50/MIC) S. aureus ΔNorA (S. aureus ΔNorA): <1.1 | MIC (S. aureus ΔNorA): > 128 µg/mL | Selectivity index (CC50/MIC) S. aureus 6538P (S. aureus ATCC 6538P): <1.1 | MIC (S. aureus ATCC 6538P): > 128 µg/mL | Selectivity index (CC50/MIC) MRSE 35984 [8]: <1.1 | MIC [8]: > 128 µg/mL | CC50 at 24 h [9]: 142 µg/mL (≈ 256 µM)

CN(CC[C@H](N)CC(=O)N[C@H]1C=C[C@H](n2ccc(NC(=O)c3ccc(NC(=O)[C@@](C)(N)CO)cc3)nc2=O)O[C@@H]1C(=O)O)C(=N)N [Blastimidine C5]
MIC [1]: > 128 µg/mL | Selectivity index (CC50/MIC) MRSA USA300 [2]: <1.4 | MIC [2]: > 128 µg/mL | Selectivity index (CC50/MIC) VRE NR-31972 [3]: <1.4 | MIC [3]: > 128 µg/mL | Selectivity index (CC50/MIC) E. faecalis 29212 [4]: <1.4 | MIC [4]: > 128 µg/mL | Selectivity index (CC50/MIC) VRE NR-31909 [5]: <1.4 | MIC [5]: > 128 µg/mL | Selectivity index (CC50/MIC) P. aeruginosa (Pseudomonas aeruginosa): <1.4 | MIC (Pseudomonas aeruginosa): > 128 µg/mL | MIC [6]: > 128 µg/mL | Selectivity index (CC50/MIC) K. pneumoniae [7]: <1.4 | MIC [7]: > 128 µg/mL | Selectivity index (CC50/MIC) MRSA 43300 (MRSA ATCC 43300): <1.4 | MIC (MRSA ATCC 43300): > 128 µg/mL | Selectivity index (CC50/MIC) S. aureus ΔNorA (S. aureus ΔNorA): <1.4 | MIC (S. aureus ΔNorA): > 128 µg/mL | Selectivity index (CC50/MIC) S. aureus 6538P (S. aureus ATCC 6538P): <1.4 | MIC (S. aureus ATCC 6538P): > 128 µg/mL | Selectivity index (CC50/MIC) MRSE 35984 [8]: <1.4 | MIC [8]: > 128 µg/mL | CC50 at 24 h [9]: 177 µg/mL (≈ 275 µM)
